# What was measured:
# [1] = Blue shift of tryptophan emission spectrum on membrane binding; assay type: physicochemical; conditions: PC/PG SUV, relative to spectrum without lipid; excitation 280 nm; mean ± SE
# [2] = Acrylamide quenching of tryptophan fluorescence; assay type: physicochemical; conditions: 100 μM PC/PG (7:3) SUV, cholesterol-free
substance,measurement,setting,value
wRVIRLVRVFRIFKLSRH [W-S4],Blue shift of tryptophan emission at saturation,[1],13 ± 2 nm
same,Ratio of quenching constants KSV(lipid)/KSV(no lipid),[2],0.41 ± 0.03

# From PMC3412939 (Biochimica et biophysica acta, 2012)
